In patent US12275729B2 (Merck Sharp & Dohme LLC, priority 2017, dated 2025):

What follows are compounds tested against IDO1 (Homo sapiens, UniProt P14902) (assay: IDO1 Cellular Assay in HeLa Cells Stimulated with IFNγ). Settings: about 48 hours, read-out: Hela IC50.
Type: cell-based

Chain of IDO1 (P14902 whole entry): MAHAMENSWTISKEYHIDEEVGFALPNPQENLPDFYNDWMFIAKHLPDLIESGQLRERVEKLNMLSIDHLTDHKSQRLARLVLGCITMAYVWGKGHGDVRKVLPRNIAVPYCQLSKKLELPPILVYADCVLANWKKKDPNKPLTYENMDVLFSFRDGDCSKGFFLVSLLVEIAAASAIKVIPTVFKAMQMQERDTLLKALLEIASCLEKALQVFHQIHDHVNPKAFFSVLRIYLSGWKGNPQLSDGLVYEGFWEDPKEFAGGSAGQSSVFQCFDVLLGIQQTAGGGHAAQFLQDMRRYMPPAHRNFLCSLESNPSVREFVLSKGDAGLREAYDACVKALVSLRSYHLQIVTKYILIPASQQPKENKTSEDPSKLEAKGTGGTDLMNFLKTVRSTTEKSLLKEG

| SMILES | IC50 |
| --- | --- |
| COc1ccc(C(=O)NCc2ccc3c(c2)CCCN3C(=O)CC(C)C)cc1 [Example 6, 4-methoxy-N-{[1-(3-methylbutanoyl)-1,2,3,4-tetrahydroquinolin-6-yl]methyl}benzamide] | 56.4 nM |
| CN(C)C(=O)N1CCCc2cc(C3(C(=O)Nc4ccc(F)cn4)CCC3)ccc21 [Example 102, 6-{1-[(5-fluoropyridin-2-yl)carbamoyl]cyclobutyl}-N,N-dimethyl-3,4-dihydroquinoline-1(2H)-carboxamide] | 149 nM |
| O=C(N1CCCC1)N1CCCc2cc(C3(C(=O)Nc4ccc(F)cn4)CCC3)ccc21 [Example 103, N-(5-fluoropyridin-2-yl)-1-[1-(pyrrolidine-1-carbonyl)-1,2,3,4-tetrahydroquinolin-6-yl]cyclobutane-1-carboxamide] | 76.7 nM |
| O=C(N1CCCc2cc(C3(C(=O)Nc4ccc(F)cn4)CCC3)ccc21)C1(F)CC1 [Example 99, 1-[1-(1-fluorocyclopropane-1-carbonyl)-1,2,3,4-tetrahydroquinolin-6-yl]-N-(5-fluoropyridin-2-yl)cyclobutane-1-carboxamide] | 16.8 nM |
| CC(C)(C)OC(=O)N1CCCc2cc(C3(C(=O)NC45CC(C4)C5)CCC3)ccc21 [Example 119, tert-butyl 6-{1-[(bicyclo[1.1.1]pentan-1-yl)carbamoyl]cyclobutyl}-3,4-dihydroquinoline-1(2H)-carboxylate] | 87.6 nM |
| Cc1cc(N2CCCc3nc(C4(NC(=O)c5ccc(F)cc5)CC4)ccc32)ccn1 [Example 243, 4-fluoro-N-{1-[5-(2-methylpyridin-4-yl)-5,6,7,8-tetrahydro-1,5-naphthyridin-2-yl]cyclopropyl}benzamide] | 14.3 nM |
| COCC(=O)N1CCCc2cc(C(C)C(=O)Nc3ccc(F)cc3)ccc21 (stereo not shown) [Example 59, N-(4-fluorophenyl)-2-[1-(methoxyacetyl)-1,2,3,4-tetrahydroquinolin-6-yl]propanamide] | 20 nM |
| CC(C(=O)Nc1ccc(F)cc1)c1ccc2c(c1)CCCN2Cc1cccc(Cl)c1 (single isomer, unassigned) [Example 226, 2-{1-[(3-chlorophenyl)methyl]-1,2,3,4-tetrahydroquinolin-6-yl}-N-(4-fluorophenyl)propanamide] | 43.6 nM |
| CC(C)c1cc(C(=O)NCc2ccc3c(c2)CCCN3C(=O)c2cccc(Cl)c2)on1 [Example 18, N-{[1-(3-chlorobenzene-1-carbonyl)-1,2,3,4-tetrahydroquinolin-6-yl]methyl}-3-(propan-2-yl)-1,2-oxazole-5-carboxamide] | 186 nM |
| Cc1nnc(C(=O)N2CCCc3cc(C(C)C(=O)Nc4ccc(F)cc4)ccc32)o1 (stereo not shown) [Example 44] | 16.8 nM |
| O=C(NC1(c2ccc3c(n2)CCCN3C(=O)C2CC2)CC1)c1ccc(F)cc1 [Example 168, N-{1-[5-(cyclopropanecarbonyl)-5,6,7,8-tetrahydro-1,5-naphthyridin-2-yl]cyclopropyl}-4-fluorobenzamide] | 25.7 nM |
| O=C(c1cc(C2CC2)n[nH]1)N1CCCc2cc(C3(C(=O)Nc4ccc(F)cc4)CCC3)ccc21 [Example 117, 1-[1-(3-cyclopropyl-1H-pyrazole-5-carbonyl)-1,2,3,4-tetrahydroquinolin-6-yl]-N-(4-fluorophenyl)cyclobutane-1-carboxamide] | 17.7 nM |
| Cc1ccnc(C(=O)N2CCCc3cc(C4(C(=O)Nc5ccc(F)cn5)CCC4)ccc32)n1 [Example 118, N-(5-fluoropyridin-2-yl)-1-[1-(4-methylpyrimidine-2-carbonyl)-1,2,3,4-tetrahydroquinolin-6-yl]cyclobutane-1-carboxamide] | 1.5 nM |
| C[C@H](C(=O)Nc1ccc(F)cn1)c1ccc2c(c1)CCCN2C(=O)C1CC1 (single isomer, unassigned) [Example 61] | 9.4 nM |
| Cc1n[nH]c(C(=O)N2CCCc3cc(C4(C(=O)Nc5ccc(F)cc5)CCC4)ccc32)n1 [Example 109, N-(4-fluorophenyl)-1-[1-(3-methyl-1H-1,2,4-triazole-5-carbonyl)-1,2,3,4-tetrahydroquinolin-6-yl]cyclobutane-1-carboxamide] | 16.2 nM |
| Cc1nccc(N2CCCc3nc(C4(NC(=O)c5ccc(F)c(F)c5)CC4)ccc32)n1 [Example 302, 3,4-difluoro-N-(1-(5-(2-methylpyrimidin-4-yl)-5,6,7,8-tetrahydro-1,5-naphthyridin-2-yl)cyclopropyl)benzamide] | 2.92 nM |
| O=C(Nc1ccc(Cl)cc1)C1(c2ccc3c(n2)CCCN3c2cccc(C(F)(F)F)n2)CCC1 [Example 409, N-(4-chlorophenyl)-1-(5-(6-(trifluoromethyl)pyridin-2-yl)-5,6,7,8-tetrahydro-1,5-naphthyridin-2-yl)cyclobutane-1-carboxamide] | 1.74 nM |
| CC(C)[C@H](O)C(=O)N1CCCc2cc([C@H](C)C(=O)Nc3ccc(F)cc3)ccc21 (single isomer, unassigned) [Example 73] | 381 nM |
| C[C@@H](NC(=O)c1ccc(F)cn1)c1ccc2c(c1)CCCN2C(=O)C1(F)CC1 (single isomer, unassigned) [Example 33] | 729 nM |

The remaining lines, values ahead:

| IC50 | SMILES |
| --- | --- |
| 48.7 nM | CC(NC(=O)c1ccc(F)cc1)c1ccc2c(n1)CCCN2C(=O)[C@@H]1CCCCO1 (stereo partly drawn) [Example 132, 4-fluoro-N-(1-(5-((S)-tetrahydro-2H-pyran-2-carbonyl)-5,6,7,8-tetrahydro-1,5-naphthyridin-2-yl)ethyl)benzamide] |
| 2.5 nM | CC(NC(=O)c1ccc(F)cc1)c1ccc2c(n1)CCCN2C(=O)c1cccc(Cl)c1Cl (stereo not shown) [Example 148, N-{1-[5-(2,3-dichlorobenzene-1-carbonyl)-5,6,7,8-tetrahydro-1,5-naphthyridin-2-yl]ethyl}-4-fluorobenzamide] |
| 540 nM | CC(NC(=O)c1ccc(F)cc1)c1ccc2c(n1)CCCN2C(=O)C1(C)CCCCO1 (stereo not shown) [Example 136, 4-fluoro-N-{1-[5-(2-methyloxane-2-carbonyl)-5,6,7,8-tetrahydro-1,5-naphthyridin-2-yl]ethyl}benzamide] |
| 10.8 nM | COC(=O)N1CCCc2nc(C(C)C(=O)Nc3ccc(Cl)cc3)ccc21 (stereo not shown) [Example 223, methyl 6-{1-[(4-chlorophenyl)amino]-1-oxopropan-2-yl}-3,4-dihydro-1,5-naphthyridine-1(2H)-carboxylate] |
| 27.5 nM | C[C@H](NC(=O)c1ccc(F)cc1)c1ccc2c(c1)CCCN2C(=O)C1(F)CC1 (single isomer, unassigned) [Example 32] |
| 617 nM | CC(NC(=O)c1ccc(Cl)cc1)c1ccc2c(n1)CCCN2C(=O)C1CC1 (single isomer, unassigned) [Example 126, 4-chloro-N-{1-[5-(cyclopropanecarbonyl)-5,6,7,8-tetrahydro-1,5-naphthyridin-2-yl]ethyl}benzamide] |
| 342 nM | CC(NC(=O)c1ccc(F)cc1)c1ccc2c(n1)C(O)CCN2C(=O)C1CC1 (stereo not shown) [Example 196, N-(1-(5-(cyclopropanecarbonyl)-8-hydroxy-5,6,7,8-tetrahydro-1,5-naphthyridin-2-yl)ethyl)-4-fluorobenzamide] |
| 34.9 nM | CC(C)C(C(=O)Nc1ccc(F)cc1)c1ccc2c(n1)CCCN2C(=O)C1CC1 (stereo not shown) [Example 263, 2-(5-(cyclopropanecarbonyl)-5,6,7,8-tetrahydro-1,5-naphthyridin-2-yl)-N-(4-fluorophenyl)-3-methylbutanamide] |
| 57 nM | COC(=O)N1CCCc2nc(C3(NC(=O)c4ccc(F)cc4)CC3)ccc21 [Example 215, methyl 6-{1-[(4-fluorobenzene-1-carbonyl)amino]cyclopropyl}-3,4-dihydro-1,5-naphthyridine-1(2H)-carboxylate] |
| 236 nM | CC(NC(=O)c1ccc(F)cc1)c1ccc2c(c1)CCCN2C(CO)c1cccc(Cl)c1 (single isomer, unassigned) [Example 94] |
| 186 nM | CC(NC(=O)c1ccc(F)cc1)c1ccc2c(n1)C(F)CCN2C(=O)C1CC1 (single isomer, unassigned) [Example 201, N-(1-(5-(cyclopropanecarbonyl)-8-fluoro-5,6,7,8-tetrahydro-1,5-naphthyridin-2-yl)ethyl)-4-fluorobenzamide] |
| 24.6 nM | CC(C)NC(=O)N1CCCc2nc([C@@H](C)C(=O)Nc3ccc(F)cc3)ccc21 [Example 217, 6-{(2R)-1-[(4-fluorophenyl)amino]-1-oxopropan-2-yl}-N-(propan-2-yl)-3,4-dihydro-1,5-naphthyridine-1(2H)-carboxamide] |

Same assay, conditions: read-out: Hela IC50

| SMILES | IC50 |
| --- | --- |
| O=C(OC1CC1)N1CCCc2nc(C3(C(=O)Nc4ccc(Cl)nc4)CCC3)ccc21 [Example 412, cyclopropyl 6-(1-((6-chloropyridin-3-yl)carbamoyl)cyclobutyl)-3,4-dihydro-1,5-naphthyridine-1(2H)-carboxylate] | 0.92 nM |
| O=C(Nc1ccc(F)cc1)C1(c2ccc3c(n2)CCCN3c2ccnc(C(F)(F)F)n2)CC2(CC2)C1 [Example 416, N-(4-fluorophenyl)-5-(5-(2-(trifluoromethyl)pyrimidin-4-yl)-5,6,7,8-tetrahydro-1,5-naphthyridin-2-yl)spiro[2.3]hexane-5-carboxamide] | 0.79 nM |

Further lines, results first:

| IC50 | SMILES |
| --- | --- |
| 14.4 nM | CC(COC(=O)N1CCCc2nc(C(C)NC(=O)c3ccc(F)cc3)ccc21)Oc1ccccc1 (stereo not shown) [Example 327, 2-phenoxypropyl 6-(1-(4-fluorobenzamido)ethyl)-3,4-dihydro-1,5-naphthyridine-1(2H)-carboxylate] |
| 6.38 nM | Cc1nccc(N2CCCc3nc(C(C)C(=O)Nc4ccc(F)cc4)ccc32)n1 (stereo not shown) [Example 373, N-(4-fluorophenyl)-2-(5-(2-methylpyrimidin-4-yl)-5,6,7,8-tetrahydro-1,5-naphthyridin-2-yl)propanamide] |
| 0.65 nM | CC(NC(=O)c1ccc(F)cc1)c1ccc2c(n1)CCCN2C(=O)OC1CCCC1 (stereo not shown) [Example 314, cyclopentyl 6-(1-(4-fluorobenzamido)ethyl)-3,4-dihydro-1,5-naphthyridine-1(2H)-carboxylate] |
| 5.34 nM | Cc1nccc(N2CCCc3nc(C(C)C(=O)Nc4ccc(F)cc4)ccc32)n1 (stereo not shown) [Example 372, N-(4-fluorophenyl)-2-(5-(2-methylpyrimidin-4-yl)-5,6,7,8-tetrahydro-1,5-naphthyridin-2-yl)propanamide] |
